Results reported in US20210177722A1, “Phytic Acid Ester Derivative” (NATIONAL UNIVERSITY CORPORATION KUMAMOTO UNIVERSITY, priority 2018, published 2021).

Legend:
[1] = system: S1T cell (ATL cell line) tumor; assay: Effect on HTLV-1 infected cell-transplanted mouse (ATL model); format: in vivo; conditions: day 28 after transplantation, 20 mg/kg per day intraperitoneally for 28 days, NSG mice with S1T cells
Description: In this example, the in vivo effect of Pro-IP6 on an HTLV-1 infected cell-transplanted mouse was checked. HTLV-1 (human T cell leukemia virus 1) mainly infects CD4-positive T lymphocyte, and when the infected cell cancerates, refractory malignant tumor, adult T-cell leukemia (ATL) is caused. In this example, S1T cell, that is, one of ATL cell lines, was used.
5-Week-old female NSG mice (NOD. Cg-Prkdc scid I12rg tm1Wjl/SzJ, Charles River Laboratories Japan, Inc.) were used. Five mice each in each of two cages, namely, ten mice in total, were raised with sterilized bedding (Pepar Clean: Japan SLC, Inc.) placed in a sterilized cage (Clea Japan, Inc.). […]
The control group was dosed with DMSO, and the IP6 administration group and the pro-IP6 administration group were intraperitoneally dosed respectively with IP6 in an amount of 7.1 mg/kg and pro-IP6 in an amount of 20 mg/kg. The mice were dosed continuously for 28 days after the day of the cell transplantation, and the weight and the tumor volume of each mouse were measured every day. The tumor volume was defined as (shorter diameter in mm)^2×(longer diameter in mm)×0.5, and the shorter diameter and the longer diameter were measured with a caliper. […] Subsequently, the tumor was totally removed, and the tumor volume and the tumor weight of each tumor were measured.

Akt = assay: Western blotting (1), anti-phospho-Akt (Thr308) antibody, Jurkat cell; format: cell-based, human; conditions: 8 hours or 24 hours
Method: (§1) In this example, the action mechanism for killing cells by Pro-IP6 was studied by Wester blotting using a Jurkat cell and various antibodies. Jurkat cells (1×10^5 cells/well, culture fluid: 500 μL) were seeded in a 24-well plate to be cultured overnight. Thereafter, DMSO (1%, Fujifilm Wako Pure Chemical Corporation), an aqueous solution (1%) of IP6 (final concentration: 10 μM, Sigma Aldrich), or a DMSO solution (1%) of Pro-IP6 (final concentration: 1 μM or 10 μM) was added thereto, followed by culturing for 8 hours or 24 hours. A supernatant was removed, the resultant was washed with 1× PBS (−) once, Laemmli sample buffer was added thereto, and the resultant was boiled at 100° C. for 1 hour to dissolve the cells. […] Detection was performed using ImmunoStar LD (Fujifilm Wako Pure Chemical Corporation).

Caspase-3 = assay: Western blotting (1), Caspase-3 antibody, Jurkat cell; format: cell-based, human; conditions: 10 μM
Method: as §1

[2] = system: M8166 cell (human T-lymphoblastoid cell); assay: MTT assay, M8166 cell; format: cell-based
Method: In this example, the cytotoxic effect of Pro-IP6 on four types of blood cancer cell lines and a cell derived from a healthy person was examined by MTT assay. […] It is possible to check viability of cultured cells by MTT assay. Cancer cell lines (1.74×10^4 cells/well, culture fluid: 200 μL) • MT-2 cell (HTLV transformed human T cell leukemia cell) • […] cell (human T-lymphoblastoid cell) • Jurkat cell (human T-lymphocyte cell) • K562 cell (chronic myelogenous leukemia cell) Each of the above-described types of cells was seeded in a 96-well plate, and was cultured for 8 hours for each of the various cancer cell lines and for 16 hours for PMBC. Thereafter, DMSO (1%, Fujifilm Wako Pure Chemical Corporation), an aqueous solution (1%) of IP6 (final concentration: 1 μM or 10 μM, Sigma Aldrich), or a DMSO solution (1%) of Pro-IP6 (final concentration: 1 μM or 10 μM) was added thereto, followed by culturing for 8 hours or 24 hours. An MTT reagent (Dojindo Laboratories, 1.1 mg/mL) was added in an amount of 50 μL per well, and the resultant was cultured for another 4 hours. The thus precipitated crystal was collected, a supernatant was removed, and 100 μL of DMSO was added thereto to completely dissolve. The resultant solution was measured for an absorbance (550 nm).

SMILES: CCCC(=O)OCOP(=O)(OCOC(=O)CCC)O[C@H]1[C@H](OP(=O)(OCOC(=O)CCC)OCOC(=O)CCC)[C@@H](OP(=O)(OCOC(=O)CCC)OCOC(=O)CCC)[C@H](OP(=O)(OCOC(=O)CCC)OCOC(=O)CCC)[C@@H](OP(=O)(OCOC(=O)CCC)OCOC(=O)CCC)[C@H]1OP(=O)(OCOC(=O)CCC)OCOC(=O)CCC [Pro-IP6, myo-inositol hexaphosphate dodecakis(butyryloxymethyl) ester]
- tumor volume smaller as compared with that of the control group [1]: about 25%
- phosphorylation of Akt (Akt; 1 μM): inhibits phosphorylation of Akt
- phosphorylation of Akt (Akt; 10 μM): inhibits phosphorylation of Akt
- cleavage of Caspase-3 (induction of apoptosis) (Caspase-3): cleavage of PARP-1 and Caspase-3 was observed
- cytotoxic effect at 10 μM [2]: most of the cells were killed
- lowering of relative cell viability ([2]; M8166 cell, 1 μM or 10 μM, 8 hours or 24 hours): ≥ 25%
